Here are results for 5 molecules from article PMC9623576, “Semisynthesis and Evaluation of Anti-Inflammatory Activity of the Cassane-Type Diterpenoid Taepeenin F and of Some Synthetic Intermediates” (Journal of Natural Products, 2022).

In data set [1] the test system is RAW 264.7 monocyte/macrophage murine cells. The data set can be described thus: MTT growth inhibition on RAW 264.7 cells. Type of data set: cell-based. To be noted: Mus musculus, RAW264.7, RAW 264.7, MTT; for IC20: 20% growth inhibition; for IC80: 80% growth inhibition. The protocol:
(§1) A stock solution was frozen and stored at […]. Before the experiments, this solution was diluted in cell-culture medium to the adequate concentrations for each experiment. […] For nitrite assay, subcytotoxic concentrations (3/4IC50, 1/2IC50, and 1/4IC50), were used to ensure that the NO inhibitory potential was not due to a possible cytotoxic effect. The concentrations of 3/4IC50, 1/2IC50, and 1/4IC50 were used for the cell-cycle analysis. All experiments were measured and compared with control (untreated cells after 24, 48, or 72 h of treatment.)
In all experiments, monolayer cells were grown to 80–90% confluence, in sterile cell culture flasks. All cell lines used were purchased from the cell bank of the University of Granada, Spain.
The cytotoxicity assay was performed by the MTT (3-(4,5-dimethylthiazol-2-yl)-2,5-diphenyltetrazolium bromide) method.[21] […] All tested compounds were prepared in fresh growth medium. After 24 h, an additional 100 μL of medium with the corresponding concentrations of products (only medium in the control wells) was added to the corresponding wells, at various final concentrations (0–100 μg/mL). […] After 1.5 h of incubation, formazan was resuspended in 100 μL of DMSO, and each concentration was tested in triplicate.
Cytotoxicity experimental data were fitted to a sigmoidal function (y = ymax/(x/a)^−b) by nonlinear regression. […] Similar analyses were performed to obtain the IC50 of NO production. All data shown here are representative of at least two independent experiments performed in triplicate. All quantitative data were summarized as the mean ± standard deviation (SD).

Data set [2] has as its system NO production in LPS-activated RAW 264.7 macrophage murine cells. The data set can be described thus: Inhibition of NO (nitrite) release, Griess reaction. Format: cell-based. The protocol:
The concentrations of nitrites were determined by the Griess reaction.
as §1
Nitrites production was analyzed through the Griess reaction. This nitrite concentration was used as an indicator of NO production.[35] Briefly, RAW 264.7 cells were plated at 6 × 10^3 cells/well in 24-well cell culture plates and supplemented with 10 μg/mL of lipopolysaccharide (LPS). […] The supernatants were collected at 48 and 72 h, to determine their nitrite concentrations and/or stored at −80 °C for further use.
The Griess reaction was performed taking 150 μL of supernatant test samples or sodium nitrite standard (0–120 μM) and mixed with 25 μL of Griess reagent A (0.1% N,N-(1-naphthyl) ethylenediaminedihydrochloride) and 25 μL of Griess reagent B (1% sulfanilamide in 5% of phosphoric acid), in a 96-well plate. After 15 min of incubation at room temperature, the absorbance was measured at 540 nm in an ELISA plate reader (Tecan Sunrise MR20–301, TECAN, Austria). The absorbance was referred to a nitrite standard curve to determine the concentration of nitrite in the supernatant of each experimental sample. The percentage of NO production was determined, assigning 100% at the increase between negative control (untreated cells) and positive control (cells only treated with 10 μg/mL of LPS).

Data set [3] has as its system B16-F10 murine melanoma cells. The data set is described as follows: MTT cancer cell proliferation assay, B16-F10. Type of data set: cell-based. The note with it: B16-F10, 72 h. The protocol:
(§2) The five newly synthesized diterpenoids were evaluated for their cytotoxic effects against three selected tumor cell lines, B16-F10 murine melanoma cells, HT29 human colon adenocarcinoma cells, and HepG2 human hepatocarcinoma cells at increasing concentrations (0–100 μg/mL). After 72 h of treatment, cell viability was determined by an MTT assay, where the tetrazolium dye was transformed into formazan in the mitochondria of viable cells, its absorbance measured at 570 nm and expressed as a percentage with respect to untreated control cells (S3 Figure.). The concentrations required for 20, 50, and for 80% growth inhibition (IC20, IC50, and IC80) were also determined for each compound (Table 2).
as §1
(§3) Human colorectal adenocarcinoma cell line HT29 (ECACC no. 9172201; ATCC no. HTB-38), human hepatocarcinome cell line HepG2 (ECACC no. 85011430), mouse melanoma cells B16-F10 (ATCC no. CRL-6475), and murine monocyte/macrophage-like RAW 264.7 cell line (ATCC no, TIB-71) were cultured in DMEM (Dulbecco’s modified Eagle’s medium) supplemented with 2 mM glutamine, 10% heat-inactivated FCS (fetal calf serum), 10 000 units/mL of penicillin and 10 mg/mL of streptomycin, (for all cancer cell lines), 50 μg/mL of gentamicin (only for RAW 264.7 cell line), and incubated at 37 °C, in an atmosphere of 5% CO2 and 95% humidity. The culture media were changed every 48 h, and the confluent cultures were separated with a trypsin solution (0.25% EDTA). In all experiments, monolayer cells were grown to 80–90% confluence, in sterile cell culture flasks. All cell lines used were purchased from the cell bank of the University of Granada, Spain.
(§4) The cytotoxicity assay was performed by the MTT (3-(4,5-dimethylthiazol-2-yl)-2,5-diphenyltetrazolium bromide) method.[21] To quantify the cytotoxicity of compounds, the fresh and suspended cells were seeded in 96-well plates to a volume of 100 μL at 6.0 × 10^3 cells/mL for HT29 and RAW 264.7 cell lines, at 5.0 × 10^3 cells/mL for B16-F10 cells and 15.0 × 10^3 for Hep G2. Then, cells were incubated to adhere over 24 h at 37 °C with 5% CO2. All tested compounds were prepared in fresh growth medium. After 24 h, an additional 100 μL of medium with the corresponding concentrations of products (only medium in the control wells) was added to the corresponding wells, at various final concentrations (0–100 μg/mL). Finally, after 72 h of incubation at 37 °C with 5% CO2, the medium with the compounds were removed and 100 μL of MTT solution (0.5 mg/mL) in 50% of PBS 50% of medium was added to each well. After 1.5 h of incubation, formazan was resuspended in 100 μL of DMSO, and each concentration was tested in triplicate. Relative cell viability, with respect to untreated control cells, was measured by absorbance at 570 nm on an ELISA plate reader (Tecan Sunrise MR20-301, TECAN, Austria).
(§5) Cytotoxicity experimental data were fitted to a sigmoidal function (y = ymax/(x/a)^−b) by nonlinear regression. […] These analyses were performed using SigmaPlot 12.5 software. Similar analyses were performed to obtain the IC50 of NO production. All data shown here are representative of at least two independent experiments performed in triplicate. All quantitative data were summarized as the mean ± standard deviation (SD).

Data set [4] relates to HepG2 human hepatocarcinoma cells. The data set is described as follows: MTT cancer cell proliferation assay, HepG2. Type of data set: cell-based. The note with it: HepG2, 72 h. As to the method: as §2, §1, §3, §4, §5
For data set [5], the system named is HT29 human colon adenocarcinoma cells. The data set can be described thus: MTT cancer cell proliferation assay, HT29. Type of data set: cell-based. As to the method: as §2, §1, §3, §4, §5
The next data set deals with NO release. The note with it: read-out: IC50 of NO inhibitory effect; cited from earlier work.
A further data set concerns HepG-2 cancer cell line. Further details: method as in PMID 23806110. To be noted: HepG-2 cancer cell line ref 10; cited from earlier work.
The subject of a further data set is MCF-7 cancer cell line. Also on record: method as in PMID 23806110. To be noted: MCF-7 cancer cell line ref 10; cited from earlier work.
The mark [6] stands for this setting: Mus musculus, MTT, read-out: IC50.
The mark [7] stands for this setting: Mus musculus, MTT, read-out: IC20.
[8] abbreviates: Homo sapiens, MTT, read-out: IC50.
Where [9] appears, read: Homo sapiens, MTT, read-out: IC20.
Where [10] appears, read: Homo sapiens, HT-29, HT29, 72 h, MTT.
The mark [11] stands for this setting: Homo sapiens, HT-29, HT29, 72 h, MTT, read-out: IC20.

Like-named read-outs stand apart in the source and are kept apart here. Some results are limits rather than exact numbers.

In turn, `COC(=O)[C@]1(C)CCC[C@]2(C)c3cc(O)c(CO)c(C)c3CC[C@@H]12` [Compound 22, (1R,4aS,10aR)-Methyl 6-hydroxy-7-(hydroxymethyl)-1,4a,8-trimethyl-1,2,3,4,4a,9,10,10a-octahydrophenanthrene-1-carboxylate] registered a melting point of 98 to 101 °C. In data set [1], this molecule had an IC50 of 101.8 ± 0.52 µM, an IC20 of 92.1 ± 1.13 µM and an IC80 of 114.2 ± 0.17 µM. Moreover, in [2] (48 h, 1/2IC50 concentration), the “inhibition of NO release” value stood at 70.94%. Besides, the “inhibition of NO release” value in data set [2] (48 h, 3/4IC50 concentration) was found to be 86.96%. Moreover, the “inhibition of NO release” value in data set [2] (72 h, 3/4IC50 concentration) was 96%. For the same molecule, the IC50 in [3] (MTT, read-out: IC50) turned out to be 102 ± 4.36 µM. For the same molecule, the IC50 in [3] (setting [6]) is greater than 85.6 µM. The molecule further displayed an IC80 in data set [3] (Mus musculus, MTT) of 122 ± 4.22 µM. Besides, in data set [3] (setting [7]), the IC20 amounted to 85.5 ± 6.16 µM. Also, the IC50 in data set [4] (MTT, read-out: IC50) came to 125 ± 2.36 µM. Besides, the IC50 in [4] (setting [8]) was greater than 85.6 µM. The same molecule registered an IC80 in data set [4] (Homo sapiens, MTT) of 141 ± 6.51 µM. The IC20 in data set [4] (setting [9]) was 110.1 ± 0.84 µM. In data set [5] (HT29, 72 h, MTT, read-out: IC50), the concentration for half-maximal inhibition (IC50) came to 85.6 ± 4.99 µM. Moreover, the IC50 in data set [5] (Homo sapiens, HT-29, 72 h, HT29, 72 h, MTT, read-out: IC50) is greater than 85.6 µM. In addition, in [5] (setting [10]), the IC80 is 114 ± 7.35 µM. Also, the IC20 in data set [5] (setting [11]) is 67.5 ± 4.61 µM.

caesalmin A: the IC50 in the data set with NO release was roughly 25.4 µM.

As to caesalpin A [Compound 8], the IC50 was 4.7 µM with HepG-2 cancer cell line and 2.1 µM in the data set with MCF-7 cancer cell line.

Turning to `COC(=O)[C@]1(C)CCC[C@]2(C)c3cc4c(c(C)c3CC[C@@H]12)CC(=O)O4` [Compound 6, (4R,4aR,11bS)-Methyl 4,7,11b-trimethyl-9-oxo-1,2,3,4,4a,5,6,8,9,11b-decahydrophenanthro[3,2-b]furan-4-carboxylate], the IC20 in [1] was 111 ± 24 µM; in data set [3] (Mus musculus), 234 ± 4.12 µM; in data set [4] (Homo sapiens), 112 ± 22 µM; in data set [5] (Homo sapiens, HT-29, 72 h), 124.2 ± 1.11 µM. Besides, the 80% effect level in data set [1] (IC80) was put at 254.7 ± 1.48 µM. In addition, the “inhibition of NO release” value came out at 77.80% in data set [2] (48 h, 1/2IC50 concentration); 88.33% in [2] (48 h, 3/4IC50 concentration); 98% in data set [2] (72 h, 3/4IC50 concentration). For the same molecule, the IC50 in data set [3] (MTT) was greater than 100 µM; in data set [3] (MTT, listed as Taepeenin F (6)) it was 257 ± 24 µM; in [4] (MTT), greater than 100 µM; in [4] (MTT, listed as Taepeenin F (6)), 237 ± 9.69 µM; in [5] (HT29, 72 h, MTT), greater than 100 µM; in data set [5] (HT29, 72 h, MTT, listed as Taepeenin F (6)), 391 ± 39.5 µM.

Consider `COC(=O)[C@]1(C)CCC[C@]2(C)c3cc(O)c(C(C)C)c(C)c3CC[C@@H]12` [Compound 17, (1R,4aS,10aR)-Methyl 6-hydroxy-7-isopropyl-1,4a,8-trimethyl-1,2,3,4,4a,9,10,10a-octahydrophenanthrene-1-carboxylate], for which the IC50 was 129 ± 7.06 µM in [1]; 133 ± 8.17 µM in [3] (MTT, read-out: IC50); greater than 85.6 µM in [3] (setting [6]); 137 ± 13.9 µM in data set [4] (MTT, read-out: IC50); greater than 85.6 µM in data set [4] (setting [8]). Further, the IC20 in data set [1] worked out at 27.8 ± 8.38 µM; in [3] (setting [7]), 33.3 ± 5.94 µM; in [4] (setting [9]), 32.6 ± 3.41 µM; in data set [5] (setting [11]) it was 122 ± 24.2 µM. Further, the IC80 in [1] was 247 ± 6.3 µM; in data set [3] (Mus musculus, MTT) it was 259.3 ± 1.35 µM; in data set [4] (Homo sapiens, MTT) it was 274 ± 41.2 µM; in [5] (setting [10]), 311 ± 8.32 µM. Also, the “inhibition of NO release” value in data set [2] (48 h, 1/2IC50 concentration) came out at 86.5%; in data set [2] (48 h, 3/4IC50 concentration) it was 89.70%; in data set [2] (72 h, 3/4IC50 concentration), 99%.

As a reminder, the IC50 is the concentration needed to halve the response being measured. Broadly, the IC20 is the concentration needed for an effect of 20%. One may read the IC80 as the concentration needed for an effect of 80%. Low values mean greater potency, high ones weaker potency. Broadly, the melting point is the temperature, or range, at which the solid turns liquid.
